Measured values as given in PMC2226154 (The Journal of General Physiology, 1974).
Read-outs that look alike come from different tables or passages of the source.

Key:
[1] = biological target: T1, neutral amino acid transport system in rabbit ileum (Oryctolagus cuniculus, UniProt B4XTG9); assay: Inhibition of L-methionine-14C influx across the brush border membrane; conditions: for fold decrease in apparent affinity: compared to the corresponding parent compound
[2] = biological target: T1, neutral amino acid transport system in rabbit ileum; conditions: direct measurement of influx; cited from earlier work
[3] = measured by Church and Hansch, unpublished; cited from earlier work
[4] = biological target: T1, neutral amino acid transport system in rabbit ileum; conditions: Hajjar and Curran, phenylalanine analogs; cited from earlier work

## O[C@@H](CS)[C@@H](O)CS (racemic) [Dithiothreitol]
[1]; 30 mM, separate control experiments
  effect on methionine influx: minimal effect

## C[C@H](N)C(=O)O [Alanine]
[2]
  Apparent affinity: 14 M⁻¹
[3]
  log P (octanol/water partition coefficient): -2.94

## C=CC[C@H](N)C(=O)O [Allylglycine]
[1]
  affinity lower than that of norvaline: approximately 30%

## CSCC[C@@H](N)C(=O)O [D-methionine]
[1]
  fold decrease in apparent affinity: approximately 50 fold

## CCSCC[C@H](N)C(=O)O [Ethionine]
[1]; 0.5 mM methionine (reference)
  observed ratio of KI: 1.00
[1]; 2 mM methionine relative to 0.5 mM
  observed ratio of KI: 0.98
[1]; 3 mM methionine relative to 0.5 mM
  observed ratio of KI: 1.08

## CCOC(=O)CCC(N)C(=O)O (stereo not drawn) [Glutamic acid 7-ethyl ester]
[1]
  fold higher affinity than glutamic acid: 10 fold

## COC(=O)CC[C@H](N)C(=O)O [Glutamic acid Y-methyl ester]
[1]
  fold higher affinity than glutamic acid: 10 fold

## NCC(=O)O [Glycine]
[2]
  Apparent affinity: 8 M⁻¹

## CC(C)C[C@H](N)C(=O)O [Leucine]
[2]
  Apparent affinity: 32 M⁻¹

## CN[C@@H](Cc1ccccc1)C(=O)O [N-methyl phenylalanine]
[4]
  Apparent affinity: very low apparent affinity

## N[C@@H](Cc1ccccc1)C(=O)O [Phenylalanine]
[4]
  Apparent affinity: 56 M⁻¹

## CCC(O)C(N)C(=O)O (stereo not drawn) [a-Amino-b-hydroxy valeric acid, a-amino-b-hydroxyvaleric acid]
[1]; read-out: KI observed, Table V, [Na] 35
  Ki: 5 mM

## O=C(O)C(O)Cc1ccccc1 (stereo not drawn) [phenyllactic acid]
[4]
  Apparent affinity: 0.8 M⁻¹

## O=C(O)CCc1ccccc1 [phenylpropionic acid]
[4]
  Apparent affinity: 1.2 M⁻¹

## CC(C)(C)C(N)C(=O)O (stereo not drawn) [tertiary leucine]
[1]
  fold decrease in apparent affinity: ~10 fold
